# Measured values: publication PMC10584170, “Machine learning-based phenotypic imaging to characterise the targetable biology of Plasmodium falciparum male gametocytes for the development of transmission-blocking antimalarials” (PLOS Pathogens, 2023)
# Read-outs that look alike come from different tables or passages of the source.
# Experiments:
# [1] = tested on: P. falciparum male gametocytes; assay: P. falciparum Dual Gamete Formation Assay (PfDGFA), male readout (exflagellation); format: cell-based, Plasmodium falciparum NF54; conditions: for inhibition at 2 µM: 24h preincubation with gametocytes
# Outline: (§1)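 First, day-14 P. falciparum NF54 gametocytes receive compound for 24 h at 37°C in 1% O2/3% CO2. Next, ookinete medium with Cy3 anti-Pfs25 triggers gametogenesis at 28°C and male exflagellation is imaged. Finally, after 24 h in the dark, Cy3-labelled females are imaged.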
# [2] = tested on: P. falciparum gametocytes; set-up: method as in Almela et al 2015; conditions: ref Almela et al 2015; read-out: Pf Gametocyte viability (ATP) GC-ATP IC50; cited from earlier work
# HepG2 cells [3] = assay: HepG2 cytotoxicity counter-screen; conditions: for Mean TOX: mean of the HepG2 TOX50 values; for DGFA Tox50 HepG2: HepG2 value reported with the DGFA screen
# [4] = tested on: P. falciparum gametocytes; assay: P. falciparum Gametocyte Viability ATP Assay (PfGCT); format: cell-based, Plasmodium falciparum; conditions: Mean TOX HepG2 over GC-ATP IC50; GREEN = >10-fold; RED = <10-fold
# Text: Fig 1 The activity of TCAMS compound identified in the Pf DGFA screen. (A) 85 molecules were confirmed active in the Pf DGFA. 58 were previously identified in one or more transmission-blocking screens. […] No molecule was identified with >4.7-fold greater activity against female gametocytes. Abbreviations (IC50 = concentration giving 50% inhibition, PbODA = P. berghei Ookinete Development Assay, PfDGFA = P. falciparum Dual Gamete Formation Assay, PfFGAA = P. falciparum Female Gametocyte Activation Assay, PfGCT = P. falciparum Gametocyte Viability ATP Assay).
# [5] = tested on: P. falciparum female gametocytes; assay: P. falciparum Dual Gamete Formation Assay (PfDGFA), female readout (Pfs25-positive female gametes); format: cell-based, Plasmodium falciparum NF54; conditions: for inhibition at 2 µM: 24h preincubation with gametocytes
# Outline: as §1
# HepG2 cells [6] = conditions: cited from earlier work
# [7] = tested on: P. falciparum female gametocytes; assay: P. falciparum Female Gametocyte Activation Assay (PfFGAA); format: cell-based, Plasmodium falciparum; conditions: Mean TOX HepG2 over FGAA IC50; GREEN = >10-fold; RED = <10-fold
# [8] = tested on: P. falciparum female gametocytes; set-up: method as in Miguel-Blanco et al 2017; conditions: ref Miguel-Blanco et al 2017; read-out: Pf female gametogenesis FGAA IC50; cited from earlier work
# [9] = tested on: P. falciparum male gametocytes; assay: PhIDDLI timecourse assay, compound added at timepoints after triggering male gametogenesis; format: cell-based, Plasmodium falciparum NF54; conditions: compound added between 0 and 5 min post induction
# Description: To gain greater understanding of their activity, selected molecules displaying different inhibition phenotypes in the initial screen were re-tested. Rather than subjecting gametocytes to a 24h preincubation prior to inducing gametogenesis, compounds were added at varying timepoints after triggering male gametogenesis. Samples were then fixed 20 min post-induction, imaged and analysed similarly using the PhIDDLI pipeline.
# Alternatively, if compound action over time was to be assessed, 1.5ml tubes with appropriate dilutions of test compounds were prepared for each timepoint. Gametogenesis was then triggered in the mature gametocyte culture with ookinete medium and temperature decrease from 37°C. At appropriate times, 200 μl of triggered culture was sampled and mixed with test compound. All samples were then allowed to continue gametogenesis and fixed as described previously with paraformaldehyde after 20 min (when a DMSO-treated sample could be expected to be exflagellating).
# 100 μl of the fixed cell suspensions were added to wells of a 24 well plate containing 1ml PBS and a poly-l-lysine-coated glass coverslip. Cells were allowed to settle and adhere to the coverslip overnight at 4°C before coverslips were transferred to a hydrophobic membrane (Parafilm) for immunofluorescence staining in a humidified, dark box. Cells were permeabilised with 0.1% Triton-X100 in PBS for 10 min before washing in PBS three times. Non-specific binding was blocked by incubating coverslips with PBS + 10% fetal bovine serum (FBS) (blocking buffer) for 1 h. Gametocytes and microgametes were visualised by labelling with an anti-alpha tubulin antibody (raised from chicken embryo brain tubulin but cross-reacts with many other species) (clone DM1A (Sigma)) 1:500 dilution in blocking buffer for 1 h, washed as before, and then stained with an anti-mouse Alexa488 secondary antibody (Thermo-Fisher) 1:1,000 dilution in blocking buffer for a further 1 h. After a final series of washes, the coverslips were mounted on glass slides with VectaShield mountant (Vector Laboratories) containing 4′,6-diamidino-2-phenylindole (DAPI) to visualise cellular DNA.
# All slides were imaged using a Nikon Ti fluorescence microscope using an x100 oil objective and 1.5x zoom. For each sample, tubulin-postive, DAPI-positive stained gametocytes/gametes were imaged at random. Z-stack images with 0.3μm slices were captured for each field of view and images deconvolved and transformed by maximum intensity projection within the Nikon NIS Elements software. Within raw images, cells were initially identified by an automated analysis pipeline developed in ICY Bioimage Analysis based upon the intensity of the tubulin staining captured which assigns a region of interest (ROI) around each cell. All ROIs were reviewed by a trained operator and adjusted if necessary to reflect the true outline of the cell (for example if two cells touching had been allocated the same ROI). Raw images contained between 1 and 8 extractable cells.
# Code for the PhIDDLI pipeline was written in Python 3.8 and executed by command line within a 64-bit Ubuntu virtual machine running within Oracle VM VirtualBox 6.1. […] Principle component analysis of compound phenotypes (Fig 5) was performed using ClustViz (https://biit.cs.ut.ee/clustvis/) using ln(x+1) transformation, and k-means clustering of the resultant PCA data was coded in R and executed in R Studio version 1.1.456 to identify optimum cluster using the elbow method.
# [10] = this study, read-out: Pf DGFA IC50 MALE
# [11] = this study, read-out: Pf DGFA IC50 FEM
Compound,Cytotox ratio Pf Male [1],"IC50 [1, 10]",IC50 [2],Mean TOX (HepG2 cells [3]),Cytotox ratio Pf GC-ATP [4],Cytotox ratio Pf Female [5],GC-ATP TOX50 HepG2 (HepG2 cells [6]),"IC50 [5, 11]",Cytotox ratio Pf FGAA [7],IC50 [8],FGAA TOX50 HepG2 (HepG2 cells [6]),further results
Br.c1cc(C2=NC3CCCCC3N2)ccc1OCCCOc1ccc(C2=NC3CCCCC3N2)cc1 (stereo not drawn) [TC17],27.3,1130 nM,470 nM,30.89 µM,65.7,3.1,25 µM,–,–,–,–,–
COCCCNC(=S)NN=C(C)c1ccccn1 [TC19],20.8,420 nM,160 nM,8.74 µM,54.6,21.8,17 µM,400 nM,–,–,–,DGFA Tox50 HepG2 (HepG2 cells [3]): 0.48 µM
Br.c1cc(Nc2nc(-c3ccc(-c4csc(Nc5ccncc5)n4)cc3)cs2)ccn1 [TC35],26.8,300 nM,260 nM,8.03 µM,30.9,26.8,17.3 µM,300 nM,267.7,30 nM,2.26 µM,–
C=CCN(C(=O)c1ccc(Cl)c([N+](=O)[O-])c1)c1nc(-c2ccccc2)cs1 [TC38],127.1,400 nM,110 nM,50.86 µM,462.3,164.1,25 µM,310 nM,391.2,130 nM,100 µM,–
c1ccc2sc(Sc3ncnc4sccc34)nc2c1 [TC45],250.0,300 nM,500 nM,75.00 µM,150.0,258.6,25 µM,290 nM,535.7,140 nM,100 µM,DGFA Tox50 HepG2 (HepG2 cells [3]): 100 µM
Nc1cc(C=Cc2ccc([N+](=O)[O-])o2)nc2ccccc12 [TC58],44.7,160 nM,200 nM,7.15 µM,35.7,17.9,11.7 µM,400 nM,–,–,–,–
Cc1sc2ncnc(Sc3nnc(N)s3)c2c1C [TC60],30.1,1410 nM,300 nM,42.45 µM,141.5,57.4,25 µM,740 nM,55.1,770 nM,36.31 µM,–
[O-][s+]1c(Cl)c(-c2ccc(Cl)cc2)c2ccc(Cl)cc21 (stereo not drawn) [TC66],99.4,140 nM,20 nM,13.92 µM,695.8,99.4,12.8 µM,140 nM,347.9,40 nM,11.35 µM,–
Cc1cccc2nc(-c3ccc(-c4cccc(CNCCN5CCNCC5)c4)cc3)[nH]c12.O=C(O)C(F)(F)F [TC67],10.1,1870 nM,840 nM,18.84 µM,22.4,2.1,13.4 µM,9110 nM,–,–,–,–
CN(C)CCCn1c(N)c(-c2nc3ccccc3[nH]2)c2nc(C#N)c(C#N)nc21 [TC72],14.8,510 nM,200 nM,7.53 µM,37.7,5.1,6.93 µM,1470 nM,–,–,–,–
CCC1CN2CCc3cc(OC)c(OC)cc3C2CC1CC1NCCc2cc(OC)c(OC)cc21.Cl (stereo not drawn) [TC73],–,3530 nM,120 nM,17.84 µM,–,–,17.68 µM,750 nM,–,1820 nM,2.24 µM,ODA TOX50 HepG2 (HepG2 cells [6]): 23.9883 µM
Cc1cc(Nc2ccncc2)n2nc(C)c(-c3ccc(Cl)cc3)c2n1 [TC79],60.8,950 nM,910 nM,57.77 µM,63.5,5.8,50 µM,–,–,–,–,–
Nc1cc(C=Cc2ccc([N+](=O)[O-])s2)nc2ccccc12 [TC80],14.2,330 nM,600 nM,4.68 µM,7.8,4.5,7.6 µM,1030 nM,–,–,–,–
O=C(C1CC1)N1c2ccccc2CCc2ccccc21 [TCMDC-123880],–,–,–,100.00 µM,–,–,–,–,–,–,–,"effect on exflagellation [9]: strongly inhibited exflagellation; Selectivity Ratio M ([1]; HepG2 Tox50 versus male IC50): 180.08; Cytotox ratio Pf Male ([1]; Mean TOX HepG2 over DGFA IC50 MALE, GREEN = >10-fold, RED = <10-fold): 178.6; inhibition at 2 µM ([1]; Plasmodium falciparum, average of replicates, read-out: Average inhibition male (%)): 95.8%; inhibition at 2 µM ([1]; Plasmodium falciparum, replicate R1, read-out: % inhibition male (individual replicates) R1): 98.9%; inhibition at 2 µM ([1]; Plasmodium falciparum, replicate R2, read-out: % inhibition male (individual replicates) R2): 92.4%; inhibition at 2 µM ([1]; Plasmodium falciparum, replicate R3, read-out: % inhibition male (individual replicates) R3): 99.8%; inhibition at 2 µM ([1]; Plasmodium falciparum, replicate R4, read-out: % inhibition male (individual replicates) R4): 92.2%; IC50 ([1]; Plasmodium falciparum, PfDGFA, 24 h incubation with gametocytes before induction, exflagellation readout, read-out: Male IC50): 560 nM; DGFA Tox50 HepG2 (HepG2 cells [3]): 100 µM; Selectivity ratio F ([5]; HepG2 Tox50 versus female IC50): 10; Cytotox ratio Pf Female ([5]; Mean TOX HepG2 over DGFA IC50 FEM, GREEN = >10-fold, RED = <10-fold): 10.0; inhibition at 2 µM ([5]; Plasmodium falciparum, average of replicates, read-out: Average inhibition female (%)): 7.7%; inhibition at 2 µM ([5]; Plasmodium falciparum, replicate R1, read-out: % inhibition female (individual replicates) R1): 12.4%; inhibition at 2 µM ([5]; Plasmodium falciparum, replicate R2, read-out: % inhibition female (individual replicates) R2): -4.3%; inhibition at 2 µM ([5]; Plasmodium falciparum, replicate R3, read-out: % inhibition female (individual replicates) R3): 22.7%; inhibition at 2 µM ([5]; Plasmodium falciparum, replicate R4, read-out: % inhibition female (individual replicates) R4): 0.07%; IC50 ([5]; Plasmodium falciparum, PfDGFA, 24 h incubation with gametocytes before induction, female gamete readout, read-out: Female IC50): > 10000 nM"
